Results reported in ChEMBL document CHEMBL4196115 (ACS Med Chem Lett, 2018).
Numbering of substitutions follows the chain as printed. Calls of active or inactive are those of the source. No cut-off for these calls is given here.

Legend:
[1] = target: T1, Muscarinic acetylcholine receptor M1 (Rattus norvegicus) (UniProt P08482); settings: CHO
T1 sequence (whole entry): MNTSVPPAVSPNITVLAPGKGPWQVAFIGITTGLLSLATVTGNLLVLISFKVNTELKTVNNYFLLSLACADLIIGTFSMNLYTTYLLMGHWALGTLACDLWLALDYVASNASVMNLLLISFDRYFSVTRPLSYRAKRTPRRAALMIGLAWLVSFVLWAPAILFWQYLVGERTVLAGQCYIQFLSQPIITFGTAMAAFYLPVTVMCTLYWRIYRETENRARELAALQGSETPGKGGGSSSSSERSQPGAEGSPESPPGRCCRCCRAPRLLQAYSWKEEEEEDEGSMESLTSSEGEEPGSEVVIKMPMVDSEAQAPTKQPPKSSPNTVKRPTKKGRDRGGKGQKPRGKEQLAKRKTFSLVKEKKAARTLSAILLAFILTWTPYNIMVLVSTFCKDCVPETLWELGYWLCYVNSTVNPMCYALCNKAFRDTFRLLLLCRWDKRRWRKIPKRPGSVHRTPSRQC
Description: Positive allosteric modulation of rat muscarinic acetylcholine receptor M1 expressed in CHO cells assessed as increase in acetylcholine-induced calcium mobilization pretreated for 4 mins followed by acetylcholine addition and measured after 4 mins by Fluo-4-AM dye based FLIPR assay

[2] = target: T2, Muscarinic acetylcholine receptor M4 (Homo sapiens) (UniProt P08173); assay: Positive allosteric modulation of human muscarinic acetylcholine receptor M4 expressed in CHO cells; type: functional, cell-based
T2 sequence (whole entry): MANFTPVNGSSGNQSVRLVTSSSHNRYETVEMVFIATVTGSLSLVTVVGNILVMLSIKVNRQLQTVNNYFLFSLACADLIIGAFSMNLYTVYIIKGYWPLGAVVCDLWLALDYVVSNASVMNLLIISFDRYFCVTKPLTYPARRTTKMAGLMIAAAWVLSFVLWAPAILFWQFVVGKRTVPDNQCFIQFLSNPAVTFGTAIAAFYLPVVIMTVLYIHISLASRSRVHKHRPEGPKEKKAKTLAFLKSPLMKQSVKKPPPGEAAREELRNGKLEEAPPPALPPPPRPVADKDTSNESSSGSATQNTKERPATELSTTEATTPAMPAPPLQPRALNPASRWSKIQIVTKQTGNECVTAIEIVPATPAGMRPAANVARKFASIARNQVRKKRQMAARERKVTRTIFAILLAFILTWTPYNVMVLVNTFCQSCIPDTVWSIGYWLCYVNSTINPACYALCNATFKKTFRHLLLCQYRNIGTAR

Mus musculus = assay: Antialzheimer activity in mouse assessed as plasma concentration required for reversal of scopolamine-induced emotional memory deficits by measuring increase in freezing at 3 mg/kg, ip measured after 24 hrs by contextual fear conditioning assay; type: functional, organism-based
[3] = target: T3, Muscarinic acetylcholine receptor M1 (Homo sapiens) (UniProt P11229); assay: Positive allosteric modulation of human muscarinic acetylcholine receptor M1 expressed in CHO cells assessed as increase in acetylcholine-induced calcium mobilization pretreated for 4 mins followed by acetylcholine addition and measured after 4 mins by Fluo-4-AM dye based FLIPR assay; type: functional, cell-based
T3 sequence (whole entry): T1 sequence (whole entry) with V5A, S254T, S309P, K320R, G337A, V413I

[4] = target: T4, Muscarinic acetylcholine receptor M1 (Mus musculus) (UniProt P12657); settings: CHO
T4 sequence (whole entry): T1 sequence (whole entry) with S309P
Description: Positive allosteric modulation of mouse muscarinic acetylcholine receptor M1 expressed in CHO cells assessed as increase in acetylcholine-induced calcium mobilization pretreated for 4 mins followed by acetylcholine addition and measured after 4 mins by Fluo-4-AM dye based FLIPR assay

In the case of `Cc1ccc(Cc2cc3c(=O)n([C@H]4CCCC[C@@H]4O)cnc3c3ccccc23)cn1`, the IP [1] is reported as 14 nM, the Activity [2] is reported as “inactive” and the Cp (Mus musculus) is reported as 2.4 µM. It also gave an IP [3] of 19 nM and an IP [4] of 6.7 nM.
